This is an account of results in patent publication US11351178B2, “Selective HDAC6 inhibitors” (ITALFARMACO S.P.A., priority 2017, dated 2022).

pIC50: −log10 of the molar value.

In data set [1] the target is T1, HDAC8 (Homo sapiens, UniProt Q9BY41).
T1 construct: purchased BPS 50008
T1 sequence (Q9BY41 1-377): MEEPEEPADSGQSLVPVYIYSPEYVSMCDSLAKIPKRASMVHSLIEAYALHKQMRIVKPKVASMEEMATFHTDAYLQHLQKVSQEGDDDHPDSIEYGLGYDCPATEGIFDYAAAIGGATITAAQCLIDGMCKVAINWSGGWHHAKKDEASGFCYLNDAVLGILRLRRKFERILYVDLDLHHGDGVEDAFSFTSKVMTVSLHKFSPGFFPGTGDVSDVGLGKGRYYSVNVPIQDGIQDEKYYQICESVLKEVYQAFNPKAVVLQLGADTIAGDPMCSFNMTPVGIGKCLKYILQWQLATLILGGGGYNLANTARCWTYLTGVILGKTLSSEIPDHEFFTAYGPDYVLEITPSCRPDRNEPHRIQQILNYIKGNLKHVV
Kind of data set: Enzymatic test HDAC8. The format is biochemical. Conditions: Table 3.

The target in data set [2] is T2, HDAC9 (Homo sapiens, UniProt Q9UKV0).
T2 construct: purchased BPS 50009
T2 sequence (Q9UKV0 1-1066 isoform Q9UKV0-5): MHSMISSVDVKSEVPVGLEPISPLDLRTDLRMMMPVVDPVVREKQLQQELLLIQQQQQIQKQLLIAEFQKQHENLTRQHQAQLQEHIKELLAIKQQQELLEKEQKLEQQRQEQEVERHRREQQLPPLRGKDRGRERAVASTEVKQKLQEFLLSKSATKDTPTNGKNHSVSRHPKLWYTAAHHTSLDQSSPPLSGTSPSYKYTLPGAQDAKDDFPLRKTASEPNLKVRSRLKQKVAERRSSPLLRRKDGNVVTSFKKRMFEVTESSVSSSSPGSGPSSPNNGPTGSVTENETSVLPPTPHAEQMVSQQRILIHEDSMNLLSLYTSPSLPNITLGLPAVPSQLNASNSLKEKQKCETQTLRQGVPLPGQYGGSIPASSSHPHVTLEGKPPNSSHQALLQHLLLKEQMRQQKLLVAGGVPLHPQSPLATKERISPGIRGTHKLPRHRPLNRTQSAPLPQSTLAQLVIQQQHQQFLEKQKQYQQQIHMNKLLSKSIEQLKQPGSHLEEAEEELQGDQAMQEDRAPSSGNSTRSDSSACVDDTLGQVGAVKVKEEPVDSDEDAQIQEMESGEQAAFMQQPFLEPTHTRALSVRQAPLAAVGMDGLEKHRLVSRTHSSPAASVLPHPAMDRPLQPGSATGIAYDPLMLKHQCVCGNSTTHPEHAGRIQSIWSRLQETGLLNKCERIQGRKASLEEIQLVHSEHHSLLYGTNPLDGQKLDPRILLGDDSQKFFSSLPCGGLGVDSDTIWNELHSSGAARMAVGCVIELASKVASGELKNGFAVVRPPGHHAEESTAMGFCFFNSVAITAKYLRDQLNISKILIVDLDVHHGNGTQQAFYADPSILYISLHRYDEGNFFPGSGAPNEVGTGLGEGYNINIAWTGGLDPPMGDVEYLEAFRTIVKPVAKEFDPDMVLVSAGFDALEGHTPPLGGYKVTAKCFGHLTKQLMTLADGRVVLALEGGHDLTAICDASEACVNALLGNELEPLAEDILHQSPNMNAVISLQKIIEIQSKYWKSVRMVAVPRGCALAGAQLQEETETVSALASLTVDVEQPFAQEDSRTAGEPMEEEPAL
The data set is described as follows: Enzymatic test HDAC9. The format is biochemical. The following applies: Table 3. Here is the method: (§1) After a period of incubation at 30° C. (incubation times vary for different isoforms and are shown in table 1) 25 μL of solution containing the substrate were added. As substrate, FLUOR DE LYS® deacetylase substrate (Enzo Life Sciences, cat #BML-K1104, FdL), FLUOR DE LYS®-Green substrate (Enzo Life Sciences, cat #BML-K1572 FdL_G) and trifluoroacetyl-L-lysine (Tfal)-2× concentrated solution in 25 mM Tris-HCl, pH 8, 130 mM NaCl 0.05% Tween-20 10% glycerol) were used. Following a reaction period at 30° C.

The nature of data set [3]: Stability to Phase I metabolism in human S9 liver fraction. Format: in vitro ADME. An outline of the steps:
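Phase I stability in human and rat hepatic S9 at 37 °C, sampled up to 90 min. Samples were stopped with acidified acetonitrile on ice, then quantified by HPLC-UV or LC-MS/MS.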

Data set [4] has as its system B 697 promyelocytic cell line. The data set is described as follows: Cytotoxicity on 697 cell line (CellTiter 96). Format: cell-based. Conditions: 72 hours incubation, read-out: 697 TOXICITY
In outline: (§2)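 Mitochondrial-function readout (CellTiter 96 Aqueous One) after 72 h compound exposure, begun 24 h post-seeding. Dose ranges: 697 cells, 1 to 10000 nM at 2×10^4 cells/well; PBMCs, 1.5 to 10000 nM at 5×10^5 cells/well.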

The test system of data set [5] is peripheral blood mononuclear cells (PBMCs). Kind of data set: Cytotoxicity on PBMCs (CellTiter 96). Format: cell-based. The following applies: PBMC, 72 h; read-out: PBMC TOXICITY (72 h). An outline of the steps: as §2
The target in data set [6] is T3, HDAC4 (Homo sapiens, UniProt P56524).
T3 construct: purchased BPS 50004
T3 sequence (P56524 627-1084 limits assumed): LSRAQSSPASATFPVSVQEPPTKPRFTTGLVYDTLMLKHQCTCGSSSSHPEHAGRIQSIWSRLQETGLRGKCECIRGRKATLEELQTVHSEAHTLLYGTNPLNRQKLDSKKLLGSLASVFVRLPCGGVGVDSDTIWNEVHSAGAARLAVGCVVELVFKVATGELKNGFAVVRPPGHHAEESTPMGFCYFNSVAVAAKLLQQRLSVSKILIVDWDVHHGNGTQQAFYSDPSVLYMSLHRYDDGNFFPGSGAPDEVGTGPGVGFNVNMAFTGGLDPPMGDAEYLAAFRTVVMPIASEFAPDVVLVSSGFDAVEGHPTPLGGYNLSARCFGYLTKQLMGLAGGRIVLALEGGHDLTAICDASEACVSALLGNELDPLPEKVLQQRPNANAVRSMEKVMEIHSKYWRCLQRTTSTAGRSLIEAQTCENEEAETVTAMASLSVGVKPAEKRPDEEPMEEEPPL
Kind of data set: Enzymatic test HDAC4. The format is biochemical. Conditions: Table 3. The procedure: as §1

Data set [7] can be described thus: Stability in human plasma. The following applies: after 4 hours, 37° C. The format is in vitro ADME. In outline:
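Compounds incubated at 37° C in rat or human plasma at 50 μM (UV/HPLC) or 1 or 2 μM (LC-MS/MS) for 0–4 h. Reaction stopped with acidified acetonitrile on ice; percent remaining versus initial amount and plasma half-life calculated.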

Data set [8] addresses T4, recombinant human HDAC3 (Homo sapiens, UniProt O15379).
T4 construct: purchased BPS 50003
Kind of data set: Enzymatic screening on recombinant human HDAC3. Conditions: Table 3. Format: biochemical. Here is the method: Enzymatic activity on recombinant human HDAC6 and HDAC3 was evaluated (Table 2) for each synthesized compound.
as §1

Data set [9] addresses T5, HDAC10 (Homo sapiens, UniProt Q969S8).
T5 construct: purchased BPS 50010
T5 sequence (Q969S8 1-669): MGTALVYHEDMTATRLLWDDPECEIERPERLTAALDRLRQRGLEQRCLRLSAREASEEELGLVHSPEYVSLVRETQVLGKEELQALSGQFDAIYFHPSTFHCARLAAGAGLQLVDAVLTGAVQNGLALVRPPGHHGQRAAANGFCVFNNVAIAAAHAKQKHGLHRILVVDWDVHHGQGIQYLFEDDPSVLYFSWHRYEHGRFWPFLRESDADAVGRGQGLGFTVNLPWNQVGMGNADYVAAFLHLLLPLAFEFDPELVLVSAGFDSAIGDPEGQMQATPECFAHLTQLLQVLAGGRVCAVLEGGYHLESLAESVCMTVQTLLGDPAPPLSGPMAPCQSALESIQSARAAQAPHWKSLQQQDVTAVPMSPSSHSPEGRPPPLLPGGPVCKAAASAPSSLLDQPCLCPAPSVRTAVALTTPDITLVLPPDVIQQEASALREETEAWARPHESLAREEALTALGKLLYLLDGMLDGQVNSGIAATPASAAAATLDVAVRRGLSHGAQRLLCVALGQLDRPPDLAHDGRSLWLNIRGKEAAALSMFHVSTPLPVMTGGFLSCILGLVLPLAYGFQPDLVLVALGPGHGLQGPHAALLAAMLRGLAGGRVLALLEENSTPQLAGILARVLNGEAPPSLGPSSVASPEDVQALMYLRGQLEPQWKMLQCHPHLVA
Kind of data set: Enzymatic test HDAC10. Format: biochemical. Conditions: Table 3.

Where [10] appears, read: human liver S9 fraction, after 90 min, 37° C.

T4 sequence (O15379 whole entry): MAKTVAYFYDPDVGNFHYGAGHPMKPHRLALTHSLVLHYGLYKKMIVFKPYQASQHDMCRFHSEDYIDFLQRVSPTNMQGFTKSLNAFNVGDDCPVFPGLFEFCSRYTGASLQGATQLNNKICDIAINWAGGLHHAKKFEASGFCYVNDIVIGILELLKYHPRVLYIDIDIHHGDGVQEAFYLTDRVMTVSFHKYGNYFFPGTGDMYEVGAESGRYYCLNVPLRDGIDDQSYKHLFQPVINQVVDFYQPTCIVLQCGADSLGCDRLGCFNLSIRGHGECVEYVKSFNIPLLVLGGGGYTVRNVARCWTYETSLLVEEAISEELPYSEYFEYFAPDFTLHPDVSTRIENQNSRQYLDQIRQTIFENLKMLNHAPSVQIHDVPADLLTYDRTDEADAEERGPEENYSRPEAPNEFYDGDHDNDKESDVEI
T4 sequence (Q9Y618 395-489 partner limits assumed): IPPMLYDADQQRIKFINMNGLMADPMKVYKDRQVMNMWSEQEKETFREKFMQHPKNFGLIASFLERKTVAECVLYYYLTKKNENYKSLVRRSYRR

Turning to `COc1ccc(C(=O)N[C@@H](Cc2cscn2)c2nc(Cc3ccc(C(=O)NO)cc3)no2)cc1OC` [comp. 1, (S)—N-(1-(3-(4-(hydroxycarbamoyl)benzyl)-1,2,4-oxadiazol-5-yl)-2-(thiazol-4-yl)ethyl)-3,4-dimethoxybenzamide], the pIC50 in [1] was 6.15; in data set [2], 5.23; in data set [4], 4.98; in data set [5], 5.15; in data set [6] it was 5.00; in data set [8], 5.54. The compound also showed a pIC50 in data set [9] of 5.61. Moreover, the “residual percentage in human S9 fraction” value in data set [3] (human, 90 min, pH 7.4) came to 81%. Further, the “residual percentage in human plasma” value in data set [7] is given as 102%.

Take `Cn1c(Sc2c(F)cc(C(=O)NO)cc2F)nnc1-c1cccs1` [comp. 17, 3,5-difluoro-N-hydroxy-4-((4-methyl-5-(thiophen-2-yl)-4H-1,2,4-triazol-3-yl)thio)benzamide]: the pIC50 is 6.71 in [1]; 6.30 in data set [2]; 5.28 in [4]; 5.05 in data set [5]; 5.86 in data set [6]; 5.55 in data set [8]. The pIC50 in data set [9] is 5.16. The “residual percentage in human S9 fraction” value in data set [3] (setting [10]) was 83%. The “residual percentage in human plasma” value in [7] amounted to 98%.

`Cn1c(Sc2ccc(C(=O)NO)cc2)nnc1-c1cccs1` [comp. 10, N-hydroxy-4-((4-methyl-5-(thiophen-2-yl)-4H-1,2,4-triazol-3-yl)thio)benzamide]: the pIC50 was 6.30 in data set [1]; 5.96 in data set [2]; 5.36 in [4]; 5.35 in data set [5]; 5.60 in data set [6]; 6.31 in [8]. For the same compound, in data set [9], the pIC50 was 5.55. Besides, in data set [3] (setting [10]), the “residual percentage in human S9 fraction” value is on record as 95%. The “residual percentage in human plasma” value in [7] is given as 99%.

On to `O=C(NO)c1cc(F)c(Cn2nnc(-c3ccco3)n2)c(F)c1` [comp. 19, 3,5-difluoro-4-((5-(furan-2-yl)-2H-tetrazol-2-yl)methyl)-N-hydroxybenzamide], for which the pIC50 in [1] is 6.19; in data set [2], 6.23; in [4], 5.93; in data set [5], below 5.00; in data set [6], 6.17; in [8], 5.58. In addition, the pIC50 in data set [9] is 5.57. Further, in data set [3] (setting [10]), the “residual percentage in human S9 fraction” value was 94%. The “residual percentage in human plasma” value in [7] worked out at 100%.

On to `O=C(NO)c1cc(F)c(Cn2nnc(-c3ccccn3)n2)c(F)c1` [comp. 6, 3,5-difluoro-N-hydroxy-4-((5-(pyridin-2-yl)-2H-tetrazol-2-yl)methyl)benzamide], for which the pIC50 in [1] is 5.99; in [2], 6.12; in data set [4], below 5.00; in data set [5] it was 4.70; in data set [6] it was 5.98; in [8] it was 5.14. This compound had a pIC50 in data set [9] of 4.96. The “residual percentage in human S9 fraction” value in data set [3] (setting [10]) worked out at 85.6%. Moreover, the “residual percentage in human plasma” value in data set [7] was determined as 96%.

Turning to `O=C(NO)c1cc(F)c(Cn2nnnc2-c2cccs2)c(F)c1` [comp. 15, 3,5-difluoro-N-hydroxy-4-((5-(thiophen-2-yl)-1H-tetrazol-1-yl)methyl)benzamide], the pIC50 in [1] was 6.00; in [2], 6.18; in data set [4], 5.06; in data set [5], below 5.00; in [6], 6.18; in data set [8], 5.20. Further, the pIC50 in data set [9] was 5.06. Besides, the “residual percentage in human S9 fraction” value in data set [3] (human, 90 min, pH 7.4) was 83%. Besides, the “residual percentage in human plasma” value in [7] is 91%.
